According to US7247706B2, “Double mutant alpha-7 nicotinic acetylcholine receptors” (Pharmacia & Upjohn Company, priority 1999, dated 2007):
Read-outs that look alike come from different tables or passages of the source.

Experiments:
α7/5-HT3 channel = biological target: T1, α7/5-HT3 channel (Homo sapiens, UniProt P36544, M226I/T225I); assay: Calcium flux assay on FLIPR, agonist activity, α7/5-HT3-SHEP cells; format: cell-based, human α7 / mouse 5-HT3; conditions: for EC50: calcium flux
T1 construct: expressed in transfected cells
T1 sequence (P36544 with tags, fused parts or gaps T225I/M226I): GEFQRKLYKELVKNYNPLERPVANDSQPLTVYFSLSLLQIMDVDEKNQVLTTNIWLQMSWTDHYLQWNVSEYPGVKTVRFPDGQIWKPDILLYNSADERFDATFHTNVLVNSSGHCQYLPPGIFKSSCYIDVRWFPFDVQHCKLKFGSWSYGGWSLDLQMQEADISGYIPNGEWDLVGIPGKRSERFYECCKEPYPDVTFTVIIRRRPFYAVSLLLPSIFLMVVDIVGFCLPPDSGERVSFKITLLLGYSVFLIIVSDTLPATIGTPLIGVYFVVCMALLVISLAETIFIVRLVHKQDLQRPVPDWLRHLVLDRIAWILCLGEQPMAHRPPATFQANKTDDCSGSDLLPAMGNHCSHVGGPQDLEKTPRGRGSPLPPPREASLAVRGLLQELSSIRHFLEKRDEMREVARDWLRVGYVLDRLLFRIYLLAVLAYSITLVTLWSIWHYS
Experimental: The α7/5-HT3-SHEP or alternatively the human α7 nACHR double mutant SHEP (described below) cells were grown in minimal essential medium (MEM) containing nonessential amino acids supplemented with 10% fetal bovine serum, L-glutamine, 100 units/ml penicillin/streptomycin, 250 ng/ml fungizone, 400 μg/ml Hygromycin-B, and 800 μg/ml Geneticin. The cells were grown in a 37° C. incubator with 6% CO2. The α7/5-HT3-SHEP cells were trypsinized and plated in 96 well plates with dark side walls and clear bottoms (Corning # 3614) at density of […] cells per well two days before analysis. The cells were loaded in a 1:1 mixture of 2 mM Calcium Green-1, AM (Molecular Probes) prepared in anhydrous dimethylsulfoxide and 20% pluonic F-127 (Molecular Probes). This reagent was added directly to the growth medium of each well to achieve a final concentration of 2 μM of Calcium Green-1, AM. The cells were incubated in the dye for one hour at 37° C. and then washed with 4 cycles of Bio-Tek plate washer. Each cycle was programmed to wash each well with four times with either EBSS or MMEBSS. After the third cycle, the cells were allowed to incubate at 37° C. for at least ten minutes. After the fourth cycle final volume in each well was 100 μl. The cells were analyzed on FLIPR (Molecular Devices) for the change in fluorescence after the addition of a 100 μl of a 2× drug stock. FLIPR was set up to excite the dye with at 488 nanometers using 500 mW of power. A 0.5 second exposure was used to illuminate each well. Fluorescence emission was recorded above 525 nm. Fluorescence was detected using a F-stop set of either 2.0 or 1.2.
We compared the physiological Earles Balanced Salt Solution (EBBS) buffer and the special cell culture media (MMEBSS) in the Ca^++functional assay on FLIPR.
The special cell culture media, designated MMEBSS is comprised of 4 mM CaCl2, 0.8 mM MgSO4, 20 mM NaCl, 5.3 mM KCL, 5.6 mM D-Glucose, 120 mM N-Methyl-D-Glucosamine, 9 mM Tris base and 20 mM HEPES. A detailed description of the preparation of MMEBSS is provided below.

α7 nAChR [1] = biological target: T2, α7 nAChR (Homo sapiens, UniProt P36544); conditions: endogenous α7 nACh receptor; cited from earlier work
T2 sequence (P36544 23-502): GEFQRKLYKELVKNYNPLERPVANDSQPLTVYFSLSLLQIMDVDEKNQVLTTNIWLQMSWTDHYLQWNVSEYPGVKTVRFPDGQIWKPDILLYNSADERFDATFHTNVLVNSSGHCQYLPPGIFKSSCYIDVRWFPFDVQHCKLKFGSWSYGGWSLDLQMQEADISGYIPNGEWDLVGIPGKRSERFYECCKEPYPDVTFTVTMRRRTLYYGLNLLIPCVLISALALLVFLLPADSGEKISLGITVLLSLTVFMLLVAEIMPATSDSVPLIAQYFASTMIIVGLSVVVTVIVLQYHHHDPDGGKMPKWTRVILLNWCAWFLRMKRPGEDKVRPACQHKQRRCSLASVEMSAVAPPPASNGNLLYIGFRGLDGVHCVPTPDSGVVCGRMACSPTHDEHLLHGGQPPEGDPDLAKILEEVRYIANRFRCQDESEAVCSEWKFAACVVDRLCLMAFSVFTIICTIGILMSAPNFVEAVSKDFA

α7 nAChR [2] = biological target: T2, α7 nAChR; conditions: human receptor; cited from earlier work
chicken α7 nAChR = chicken α7 nAChR (Gallus gallus, UniProt P22770); conditions: chicken receptor; cited from earlier work
Chain of chicken α7 nAChR (P22770 23-502 limits assumed): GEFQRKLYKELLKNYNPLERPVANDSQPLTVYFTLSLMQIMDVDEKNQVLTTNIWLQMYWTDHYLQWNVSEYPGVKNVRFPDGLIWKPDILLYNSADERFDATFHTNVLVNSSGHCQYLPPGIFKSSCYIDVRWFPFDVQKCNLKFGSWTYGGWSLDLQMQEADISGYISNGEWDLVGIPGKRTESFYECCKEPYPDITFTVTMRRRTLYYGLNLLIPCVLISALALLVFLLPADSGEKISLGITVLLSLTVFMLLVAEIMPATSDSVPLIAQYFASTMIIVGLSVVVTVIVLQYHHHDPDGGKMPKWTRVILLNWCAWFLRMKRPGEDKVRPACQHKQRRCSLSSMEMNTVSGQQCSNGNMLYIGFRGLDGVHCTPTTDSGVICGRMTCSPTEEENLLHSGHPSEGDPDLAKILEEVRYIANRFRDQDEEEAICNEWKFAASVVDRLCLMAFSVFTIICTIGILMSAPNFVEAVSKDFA

[3] = biological target: T3, α7/5-HT3 Chimeric Ligand Gated Ion Channel (Homo sapiens, UniProt P36544, M226I/T225I); format: binding, human α7 / mouse 5-HT3; conditions: for IC50: read-out: Fitc-α-Bungoarotoxin Binding (30 nM) IC50
T3 construct: expressed in transfected cells
T3 sequence (P36544 with tags, fused parts or gaps T225I/M226I): as the sequence (P36544 with tags, fused parts or gaps T225I/M226I) above

[4] = biological target: double mutant human α7 ligand gated ion channel (Homo sapiens, UniProt P36544, C241S/T230P); conditions: 100 M nicotine as printed
Chain of double mutant human α7 ligand gated ion channel (P36544 23-502 T230P/C241S): as the sequence (P36544 23-502) above, with T208P, C219S counted along it
Experimental: The cells were grown in a 37° C. incubator with 6% CO2. […] Each cycle was programmed to wash each well with four times with either EBSS or MMEBSS. […] A 0.5 second exposure was used to illuminate each well. Fluorescence was detected using a F-stop set of either 2.0 or 1.2.

| SMILES | EC50 (α7/5-HT3 channel; MMEBSS) [µM] | EC50 (α7 nAChR [1]) [µM] | IC50 [3] [µM] | other results |
| --- | --- | --- | --- | --- |
| c1cncc(C2=NCCCC2)c1 [Anabaseine] | 6.6 | 6 | – | – |
| C[N+]1(C)CCN(c2ccccc2)CC1 [1,1-dimethyl-4-phenylpiperazinium] | – | – | – | Agonist character (α7 nAChR [2]): full agonist; Agonist character (chicken α7 nAChR): partial agonist |
| COc1ccc(/C=C2\CCCN=C2c2cccnc2)c(OC)c1 [GTS-21] | – | 30 | – | IC50 ([3]; 30 nM Fl-btx, whole cell): 16 µM |
| CNC1(C)C2CCC(C2)C1(C)C (stereo not shown) [Mecamylamine] | – | – | > 300 | – |
| Cc1cc([C@@H]2CCCN2C)on1 [ABT-418] | 27 | 70 | 38 | – |
| CN1CCCC1c1cccnc1 (single isomer, unassigned; (-)) [(−) Nicotine] | – | – | – | Competition of Fl-btx binding [3]: competes at all concentrations of Fl-btx; Calcium response to agonist in physiological buffer (α7/5-HT3 channel; 100 μM, EBSS, FIG. 6): little calcium was detected; Calcium response to agonist in special cell culture media (α7/5-HT3 channel; 100 μM, MMEBSS, FIG. 6): evoked a large increase in intracellular calcium; Calcium influx [4]: induced a maximal calcium influx |
| CCN1C[C@]2(COC(=O)c3ccccc3N3C(=O)C[C@H](C)C3=O)CC[C@H](OC)[C@@]34[C@@H]5C[C@H]6[C@H](OC)[C@@H]5[C@](O)(C[C@@H]6OC)[C@](O)([C@@H](OC)[C@H]23)[C@@H]14 [Methyllcaconitine (MLA), Methyllcaconitine] | – | – | 0.026 | – |
| Clc1ccc([C@@H]2C[C@H]3CC[C@@H]2N3)cn1 (racemic) [(+/−) Epibatidine] | 0.12 | 2 | 0.09 | Ki ([3]; read-out: Ki, competition for Fl-btx binding): 0.09 µM |
